Source: US11684675B2, “Dimeric collagen hybridizing peptides and methods of using” (University of Utah Research Foundation, priority 2015, dated 2023)
Non-standard residues stand in square brackets, D forms with d. No end group written: not given here. Hyp = O=C(O)[C@@H]1C[C@@H](O)CN1; CF = carboxyfluorescein label

Tests used:
[1] = Triple helix melting point (Tm) by circular dichroism at 225 nm; type: physicochemical; details: triple helix melting
Procedure: FIGS. 5A, 5B, 5C, and 5D show the thermal denaturation of fully assembled CHPs and subsequent cooling to initial temperature. Samples were heated at 1° C./min from their initial temperature final temperature of 90° C. Sample was then cooled at 1° C./min to the starting temperature. (A) Thermal denaturation and partial reassembly of CHP CF-6d (150 μM) monitored at 225 nm. Sample was measured from 4° C. to 90° C. (B) Thermal denaturation and partial reassembly of CHP […] (75 μM, corresponding to 150 μM strand concentration) monitored at 225 nm. Sample was measured from 4° C. to 90° C. (C) Thermal denaturation and partial reassembly of CHP CF-9 (150 μM) monitored at 225 nm. Sample was measured from 10° C. to 90° C. (D) Thermal denaturation and partial reassembly of CHP CF-9d (75 μM, corresponding to 150 μM strand concentration) monitored at 225 nm. Sample was measured from 10° C. to 90° C.
FIGS. 11A and 11B show the First Derivative of mean residue ellipticity (MRE) at 225 nm in CD. […] There is no significant change in melting point between the monomeric and dimeric forms of the same peptide.
(§1) Circular Dichroism: Circular Dichroism (CD) was measured for all peptides at 225 nm. Melting curves were taken on peptides between 10 and 80° C. at a heating rate of 0.5° C./min, with pauses at each 1° C. Refolding experiments were performed after peptide solutions were incubated at 4° C. for at least 12 hours. Concentrations were normalized to strand concentration.

[2] = system: crosslinked gelatin films; assay: Binding of CF-labelled CHPs to crosslinked gelatin films at 37° C. with and without preheating; design: species or system porcine; details: for binding to gelatin wells at 37° C. without preheating: 20 μM, 37° C. overnight, PBS wash 20 h, FIG. 6C
Procedure: FIGS. 3A and 3B show the affinity of CHPs to gelatin films as monitored by fluorescence of conjugated CF fluorophore (492 ex, 533 em). (A) Fluorescence of CHPs bound to crosslinked gelatin after incubation at 37° C. overnight with no workup. (B) Fluorescence of CHPs remaining in crosslinked gelatin after incubation at 37° C. overnight without preheating, followed by washing with 1×PBS at 37° C. (20 h).
(§2) (A) Fraction of peptide remaining in a crosslinked gelatin film after 17 h at 25° C. (10 total washes). Values are normalized to fluorescence remaining in wells after 6 washes at 4° C. (>95% removal of CHPs 9r, 6r, and 5r). All washes performed in 1×PBS. (B) CHPs (15 μM) premixed into 10% porcine gelatin and preheated to 80° C. (10 min) before being added to a 96 well plate. Excess CHP-gelatin mixture was removed, then the premix was incubated at 4° C. for 2 hours. Wells were washed at 4° C., 5 times (>95% removal of CHPs 9r, 6r, and 5r). Wells were then washed for 2 hours (6 washes total) at 25° C. to monitor CHP remaining in the well. (C) Fluorescence of CHPs remaining in crosslinked gelatin after incubation at 37° C. overnight without preheating, followed by washing with 1×PBS at 37° C. (20 h). (D) Fluorescence of CHPs remaining in crosslinked gelatin after incubation at 37° C. overnight (80° C. preheating, 10 min), followed by washing with 1×PBS at 37° C. (20 h).
Dimeric CHPs were assessed for their ability to bind to collagen strands in crosslinked gelatin films. CHP solutions (20 μM in PBS) were added directly to the crosslinked gelatin films. For heated experiments, CHPs were preheated to 80° C. for 10 minutes before addition. Peptides were allowed to fully equilibrate with the gel at 37° C. overnight before being exposed to repeated washes (4×, PBS) at 37° C. to fully remove any non-specifically bound peptide and to determine binding level at body temperature. To measure retention, peptides were bound as previously described, but were subsequently washed with PBS 37° C. (5×1 h, 1×12 h) to measure retention within the gelatin films. […] Additionally, after a period of 20 hours, higher level of the dimeric CHP remained in the gelatin compared to the monomeric CHP.
A major limitation of the use of CHP in vivo, is the requirement of the triple helix to be fully disassembled before being injected. […] For this test, peptide solutions were allowed to warm to room temperature before being added (50 μL, 20 μM) to previously prepared crosslinked gelatin films. Solutions were then incubated at 37° C. overnight before removing the solution. Wells were washed at 37° C. with PBS (20 h) to determine binding. Preheated samples were prepared and incubated in the same way, but with preheating (80° C., 10 min) before being added to the crosslinked gelatin wells.

[3] = system: crosslinked gelatin films; assay: Retention of CF-labelled CHPs in crosslinked gelatin films (bound at 4° C., washed at 25° C./r.t.); type: binding, porcine; details: for retention / affinity in gelatin films: 20 μM, preheated 80° C., bound at 4° C., washed at r.t. with PBS, FIG. 6A; for retention in crosslinked gelatin films: Example 3 retention studies
Procedure: as §2
Binding to Gelatin films. Peptide solutions (20 μM in PBS) were preheated to 80° C. for 10 minutes before being added directly to the crosslinked gelatin films. Peptides were allowed to fully equilibrate with the gel at 4° C. overnight before being exposed to repeated washes (4×30 min) at 4° to fully remove any non-specifically bound peptide. Gelatin wells were then washed at r.t. with PBS (5×1 h, lx 12 h) to measure retention within the gelatin films. […] To eliminate the possibility of these peptides merely becoming physically entrapped within the gelatin after forming triple helix or forming triple helix before binding, binding affinity was verified by producing a premix of the CHPs and Gelatin to eliminated diffusion-limited binding before washing the wells in a similar manner.
Fluorescence Binding: CHP binding to gelatin was monitored by conjugating a fluorescent Carboxyfluorescein (CF) molecule to the N-terminus of each peptide via standard SPPS. Solutions of the fluorescent peptides were heated to 80° C. for 5 min before injecting 50 μL onto a pre-prepared EDC-crosslinked thin gelatin film in a 96 well plate. Peptides incubated overnight at 4° C., then washed with repeated rounds of 4° C. 1×PBS followed by 25° C. 1×PBS.

[4] = CD refolding (triple helix assembly) at 10° C. monitored at 225 nm; type: physicochemical; details: 10° C., FIG. 12A
Procedure: Conversion was assumed to be at 100% after 96 h incubation at 4° C., and max trimer concentration was measured via CD ellipticity at 10° C. Samples were preheated to 80° C. in the sample cuvette for 10 min before being transferred directly to the sample holder held at a constant 10° C. Sample measurement began immediately. Initial time point for analysis was determined by measuring time for a blank (lx PBS) to thermally equilibrate in these conditions.
For all peptides, conversion was assumed to be at 100% after 96 h incubation at 4° C., and max trimer concentration was measured via CD ellipticity at 10° C. Samples were preheated to 80° C. in the sample cuvette for 10 min before being transferred directly to the sample holder held at a constant 10° C. Sample measurement began immediately. Initial time point for analysis was determined by measuring time for a blank (1×PBS) to thermally equilibrate in these conditions. This was set as the zero point for all peptides, as the large jump in CD due to temperature makes the initial jump irresolvable. (A) Rate of assembly of CHP 9 (60, 30, and 15 μM), over 2 h, monitored at 225 nm. (B) Rate of assembly of CHP 9d (30, 15, and 7.5 μM, corresponding to same CHP strand concentration from panel A), over 2 h, monitored at 225 nm. (C) Rate of assembly of CHP 6 (150 and 75 μM), over 2 h, monitored at 225 nm.
FIGS. 12A and 12B show CD refolding at 10° C. of CMPs monitored at 225 nm. CMPs were heated to 80° C. for 5 minutes before being placed into the CD and initial 2 min of monitored data was removed to eliminate thermal transition. Signal was normalized to that of a fully folded peptide.
as §1

porcine gelatin = assay: SPR gelatin capture by immobilized biotinylated CHPs; type: binding; details: gelatin 25 μg/mL
Procedure: FIGS. 7A and 7B show SPR data for porcine gelatin capture by immobilized CHPs. […] Gelatin was applied to the sensor surface during the association phase, followed by elution with blank during dissociation phase. Association occurred for 981 s, followed by dissociation for 1800 s. Values were normalized to a 100% biotin lane, and were adjusted to the mass of peptide immobilized in each well. (A) Preheated (80° C., 10 min), quenched (0° C., 30 s) gelatin (25 μg/mL) was applied to the sensor at an ambient temperature of 37° C. (B) Preheated (80° C., 10 min), quenched (0° C., 30 s) gelatin (25 μg/mL) was applied to the sensor at an ambient temperature of 15° C.
Surface Plasmon Resonance (SPR). […] However, there were major differences observed during the association phase. At 37° C., there was a much higher amount of gelatin adsorbed to all the peptides tested on the surface when compared to 15° C. […] At 15° C., gelatin adsorbed to the surface at a much slower rate. […] However, this lower adsorption rate can be due to a reduced diffusion rate near the surface or a more condensed gelatin structure at this lower temperature.
Dimeric CHP is able to hybridize effectively with denatured collagens with faster folding kinetics than current, monomeric CHPs. Surface plasmon resonance (SPR) was used to measure the ability of the CHPs to trap denatured collagen from solution.

Tm (° C.) ([1]; Table 2) | Tm (° C.) ([1]; Table 1) | Substance | retention / affinity in gelatin films [3] | also measured
27 (SEQ ID NO: 67) ° C. |  | (GPO)5 [compound 5, reference compound] |  | binding to gelatin wells at 37° C. without preheating [2]: do not have a strong enough affinity to the gelatin to bind effectively at physiologic temperature
36 (SEQ ID NO: 64) ° C. |  | (GPO)6-G3K^Biotin [b-6] |  | 
68 (SEQ ID NO: 61) ° C. |  | (GPO)9-G3K^Biotin [b-9] |  | 
69 (SEQ ID NO: 57) ° C. | 69 (SEQ ID NO: 57) ° C. | CF-G3-(GPO9) [CF-9] |  | retention in crosslinked gelatin films [3]: 58%
73 (SEQ ID NO: 55 w/label) ° C. | 73 (SEQ ID NO: 55 °C | [(CF-Ahx-GPO)9G3)2KG [CF-9d] |  | 
50 (SEQ ID NO: 63) ° C. | 50 (SEQ ID NO: 63) ° C. | [(CF-G3GPO)6G3)2KG [CF-6d] | comparable affinity to that of the GPO9 monomer (CF-9) and GPO9 dimer (CF-9d) | retention in crosslinked gelatin films [3]: 66%; more peptide remaining after 20 hours of wash ([2]; 37° C., non-preheated, vs currently utilized CHP, FIG. 17): 50%; higher initial binding to the gelatin substrate ([2]; non-preheated, vs currently utilized CHP, FIG. 17): 350%
37 (SEQ ID NO: 65) ° C. |  | [(GPO)6G3)2KG3K^Biotin [b-6d] |  | 
68 (SEQ ID NO: 62) ° C. |  | [(GPO)9G3)2KG3K^Biotin [b-9d] |  | 
69 (SEQ ID NO: 55) ° C. | 69 (SEQ ID NO: 55) ° C. | [(GPO)9G3)2KG [9d] |  | increase in refolding rate compared to monomeric GPO9 [4]: two-fold; binding to gelatin wells at 37° C. without preheating [2]: bind more significantly than the GPO9 monomer without preheating; ability to bind gelatin (porcine gelatin; 15° C.): maintained its greater ability to bind gelatin; ability to bind gelatin (porcine gelatin; 37° C.): higher ability to bind gelatin than that of an equivalent number of strands in their monomeric counterparts

Substance | Tm (° C.) ([1]; Table 2) | Tm (° C.) ([1]; Table 1) | retention / affinity in gelatin films [3] | also measured
CF-G3-(GPO5) (GGGGPPGPPGPPGPPGPP; carboxyfluorescein label; collagen hybridizing peptide; (6)..(6) Proline is hydroxyproline; (9)..(9) Proline is hydroxyproline; (12)..(12) Proline is hydroxyproline; (15)..(15) Proline is hydroxyproline; (18)..(18) Proline is hydroxyproline) [CF-5, reference compound] | 28 (SEQ ID NO: 69) ° C. |  | almost entirely washed out of the gelatin films | 
CF-G3-(GPO6) (GGGGPPGPPGPPGPPGPPGPP; carboxyfluorescein label; collagen hybridizing peptide; (6)..(6) Proline is hydroxyproline; (9)..(9) Proline is hydroxyproline; (12)..(12) Proline is hydroxyproline; (15)..(15) Proline is hydroxyproline; (18)..(18) Proline is hydroxyproline; (21)..(21) Proline is hydroxyproline) [CF-6] | 37 (SEQ ID NO: 60) ° C. | 37 (SEQ ID NO: 60) ° C. | almost entirely washed out of the gelatin films | 
[(CF-G3GPO)5G3)2KG ({CF}-GGGGP[Hyp]GP[Hyp]GP[Hyp]GP[Hyp]GP[Hyp]GGGKGGG[Hyp]PG[Hyp]PG[Hyp]PG[Hyp]PG[Hyp]PGGGG; not fully specified (C-terminus); also: lysine-branched dimer: K22 is the branch point, second arm (23-43) is written reversed, its N-terminus at position 43 carries CF) [CF-5d] | 28 (SEQ ID NO: 70) ° C. |  | higher affinity to the gelatin films than CF-6 | 
[(GPO)5G3)2KG (GP[Hyp]GP[Hyp]GP[Hyp]GP[Hyp]GP[Hyp]GGGKGGG[Hyp]PG[Hyp]PG[Hyp]PG[Hyp]PG[Hyp]PG; not fully specified (C-terminus); also: lysine-branched dimer: K19 is branch point carrying two arms and a third (C-terminal) Gly, residues 20-37 are the second arm written in reverse order) [5d] | 27 (SEQ ID NO: 68) ° C. |  |  | 
